Consider 64 compounds from PubChem BioAssay AID463074 (Broad Institute, 2010).

The source made the active and inactive calls.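 The calls were made as follows: active = AC50 no more than tenfold above the top dose tested, or full inhibition at every dose with a flat fit (cut at about 19 µM in these data); inconclusive = flat curve fit with inhibition between 30% and 70%, or poor fit; inactive = AC50 more than tenfold above the top dose tested.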

In the assay the test system is HMLE_sh_eGFP viability, CellTiter-Glo luminescence, 72 h. The experiment in a line: cytotoxicity in HMLE control line with eGFP shRNA, dose response, counter-screen for HMLE_sh_ECad selective toxicity project, cell-based, HMLE_sh_eGFP, luminescence (AID 463074;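 also: potency for loss of viability as luminescence drops below DMSO wells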). (In general: Counterscreens check selectivity or assay interference.)
With `C=C1C(=O)C=C[C@]2(C)C[C@@H]3OC(=O)[C@](C)(O)[C@H]3C[C@@H]12`, the AC50 was 9.76 µM. As for `O=c1[nH]c(CN2CCN(c3ccccn3)CC2)nc2c(Br)cc(Br)cc12`, the figure is 10.3 µM; as for `C=CCC[C@H](Cc1ccc(F)cc1)C(=O)OC[C@@H](Cc1c[nH]c2ccccc12)NC(=O)[C@@H](CC=C)CC(=O)N(CCO)Cc1ccccc1`, 4.34 µM; as for `CCCCOc1ccc(S(=O)(=O)N2CCN(c3ccc(N4CCN(CC)CC4)nn3)CC2)cc1`, 0.46 µM.

Consider `NC(=O)CC(NC(=O)c1ccc(Br)cc1)c1ccc(N2CCCCCC2)c([N+](=O)[O-])c1` (centres undefined), for which the AC50 is 19.6 µM. As for `Cc1ccc([N+](=O)[O-])cc1N(CC(=O)Nc1ccc(S(=O)(=O)Nc2cccc(C(F)(F)F)c2)cc1)S(C)(=O)=O`, the figure is 4.67 µM. In the case of `CCOC(=O)c1nn(-c2ccc(F)cc2)c(-c2ccccc2)c1C(=O)c1ccccc1`, the AC50 was 11.8 µM. Under `CC1=NN(c2ccccc2)C(=O)/C1=C/C=C/c1ccccc1` stands 3.57 µM; under `CCCCCNCC(=O)Nc1cccc(C(=O)Nc2cccc(C(F)(F)F)c2)c1`, 13.2 µM; under `C[C@@H]1O[C@@H](O[C@H]2C[C@@H](O)[C@]3(CO)[C@H]4[C@H](O)C[C@]5(C)[C@@H](C6COC(=O)C6)CC[C@]5(O)[C@@H]4CC[C@]3(O)C2)[C@H](O)[C@H](O)[C@H]1O` (some centres undefined), 0.74 µM. Under `CC1(C)C=Cc2c(c3c(c4c(=O)c(-c5ccc(O)cc5)coc24)OC(C)(C)CC3)O1` stands 7.5 µM; under `CN(C)S(=O)(=O)Oc1cccc(C(=O)Nc2ccc(Cl)c(Cl)c2)c1`, 6.22 µM. As for `CCOC(=O)c1c(NC(NC(=O)C(C)C)C(Cl)(Cl)Cl)sc2c1CCC2` (centres undefined), the figure is 7.47 µM; as for `CCSc1ncc(/C=N/Nc2ccc(Cl)cc2)n1C`, 6.75 µM. For the compound `O=C1c2cc(Br)ccc2N(Cc2ccc(Br)cc2)S(=O)(=O)C1c1cc(Cl)c(Cl)cc1[N+](=O)[O-]` (centres undefined), the AC50 is 3.07 µM. As for `Cc1cccc(-c2nc(Nc3cccc(O)c3)c3ccccc3n2)c1`, the figure is 5.27 µM; as for `O=C(Nc1ncc(S(=O)(=O)c2ccc([N+](=O)[O-])cc2)s1)c1ccc2ccccc2c1`, 3.61 µM. `Cc1ccccc1C(=O)Nc1ccc(-c2nc3ccc(C(=O)c4ccccc4)cc3[nH]2)cc1`: the AC50 is 1.8 µM. As for `O=C(CS(=O)c1ccc(C(F)(F)F)cc1[N+](=O)[O-])Oc1ccccc1` (centres undefined), the figure is 5.22 µM; as for `O=C(/C=C\c1ccccc1)NCC(=O)N/N=C/c1ccc(O)cc1O`, 12 µM; as for `COc1ccc(Nc2nnc(-c3ccccc3)c3ccccc23)cc1C(=O)N1CCCCC1`, > 19.5 µM (inactive). Under `S=C1NC[C@H](Cc2ccccc2)N1CCCCC1CCCCC1` stands 4.19 µM. Under `CN(CC(O)CON=C1c2ccccc2-c2ccccc21)S(=O)(=O)c1ccc(Br)cc1` (centres undefined) stands 4.4 µM; under `COC(=O)c1cc(=O)n(Cc2ccc(F)cc2)c(=Nc2ccccc2)s1`, 5.87 µM. In the case of `CCS(=O)(=O)Nc1ccc(-c2cc(-c3ccccc3)c3cc(C)ccc3n2)cc1`, the AC50 is 3.85 µM. Under `COc1ccc(NS(=O)(=O)c2cc(NC(=O)c3ccc(=O)[nH]c3)ccc2N2CCCC2)cc1` stands 1.1 µM. As for `CCC(=O)Nc1nc(C)c(-c2csc(Nc3cccc(O)c3)n2)s1`, the figure is 0.384 µM; as for `O=c1[nH]c(CN2CC=C(c3ccccc3)CC2)nc2scc(-c3ccccc3)c12`, 5.19 µM; as for `CC(C)(C)OC(=O)NCCc1nnc(S(=O)(=O)Cc2ccc(Cl)cc2Cl)o1`, 5.73 µM. As for `Cc1nc2sccn2c(=O)c1CCN1CCC(=C(c2ccc(F)cc2)c2ccc(F)cc2)CC1`, the figure is 5.23 µM; as for `O=C(Cn1ncc(Cl)c(Cl)c1=O)NC(=O)NC1CCCCC1`, 2.23 µM; as for `CCN1CCN(c2cc(C)c3cc(NC(=S)N4CCN(c5ccc(F)cc5)CC4)ccc3n2)CC1`, 4.67 µM. `CCCC/C(C)=C/[C@@H](NP(=O)(c1ccccc1)c1ccccc1)c1ccccc1`: the AC50 is 6.68 µM.

On to `Cc1nnc(-c2ccc(Oc3ccc(Cl)cc3)c([N+](=O)[O-])c2)o1`, for which the AC50 was 0.33 µM. Under `CCCCc1ccc(NC(=O)Nc2cc(C)nn2C)cc1` stands 2.09 µM; under `C=C(C)COc1ccc(-c2[nH]ncc2-c2ccc(OC)c(OC)c2)c(O)c1`, 4.5 µM. Under `COC(=O)c1ccc(/C=C/c2c(-c3ccc(OC)cc3)oc3ccc(N4CCOCC4)cc23)cc1` stands 4.19 µM; under `COc1cc(CNCCc2c[nH]c3ccccc23)ccc1OCc1ccccc1F`, 3.64 µM. As for `CC(C)(CN1CCN(Cc2ccccc2)CC1)NS(=O)(=O)c1ccccc1`, the figure is 8.78 µM; as for `CCCCCCSc1nsc(NC(=O)CC(C)C)n1`, 9.2 µM; as for `Cc1nc([N+](=O)[O-])c(Br)n1CC(=O)c1ccc2ccccc2c1`, 6.46 µM. With `O=C(Nc1nc2ccc(SC(F)F)cc2s1)c1ccc(NS(=O)(=O)c2ccc(F)c(F)c2)cc1`, the AC50 is 3.58 µM. Take `Cc1ccn2c(Nc3ccccc3)c(-c3ccccn3)nc2c1`: the AC50 is 4.57 µM.

As for `Cc1ccc(NC(=O)Cn2c(O)c(N=NC(=O)c3cc4ccccc4cc3O)c3ccccc32)cc1`, the AC50 was 3.92 µM. As for `CC(=O)NC(c1ccccc1)c1cc([N+](=O)[O-])c2cccnc2c1O` (centres undefined), the figure is 4.02 µM; as for `COc1ccc(C[C@H]2CN3C(=NC[C@@H]3Cc3ccccc3)N2CCNC(=O)CCC2CCCCC2)cc1`, 7.04 µM. As for `O=C(/C=C/c1ccccc1)NC(=S)NNC(=O)c1cnccn1`, the figure is 6.84 µM; as for `COc1ccc(CCCC(=O)N/N=C/c2cccc(OC)c2O)cc1C`, 3.13 µM. Under `O=C(Nc1ccccc1N1CCCCC1)c1ccc(Cl)c([N+](=O)[O-])c1` stands 3.24 µM; under `O=c1cc(-c2ccc(O)cc2)oc2ccc3ccccc3c12`, 7.19 µM. Consider `O=C(N/N=C/c1cc(Cl)ccc1O)c1ccc(Br)cc1`, for which the AC50 was 4.41 µM. Under `O=Nc1c(O)n(Cc2ccc(Cl)c(Cl)c2)c2ccccc12` stands 6.85 µM; under `Cc1cccc(NC2=C/C(=N/S(=O)(=O)c3cccs3)c3ccccc3C2=O)c1`, 0.934 µM; under `CCCCN(CC)S(=O)(=O)c1ccc(C(=O)N(CCCN(C)C)c2nc3cc(C)cc(C)c3s2)cc1`, 7.21 µM. As to `CCc1ccc(NC(=O)c2cc3c(C)nc4ccccc4c3o2)cc1`, the AC50 is 11.9 µM. In the case of `COc1ccc(-c2sc3cc4c(cc3c2C#CC2(O)CCCCC2)OCO4)cc1`, the AC50 was 6.35 µM. Regarding `COc1cccc(-c2sc3ccccc3c2-c2ccc(OCCN(C)C)cc2)c1`, the AC50 is 3.34 µM. Consider `CC(C)Cc1nc2oc3c(Cl)ncnc3c2c2c1CCCC2`, for which the AC50 was 4.82 µM.

With `COc1cc(C#Cc2c(-c3cncn3C)n(C)c3ccc(-c4ccc(OC)nc4)cc23)cc(OC)c1`, the AC50 was 6.61 µM. As for `CCOC(=O)c1ccc(NC(=O)c2nc[nH]c2C(=O)NCCCCNC(=O)c2[nH]cnc2C(=O)Nc2ccc(C(=O)OCC)cc2)cc1`, the figure is 3.99 µM; as for `O=C(NC(=S)Nc1ccccc1N1CCCCC1)c1ccc(F)cc1Cl`, 2.84 µM; as for `O=C(N/N=C/c1cn(-c2cccs2)nc1-c1ccccc1)c1ccc(O)cc1`, 7.76 µM. As for `O/N=C/c1ccnc(SCc2ccc(Cl)cc2)n1`, the figure is 10.9 µM; as for `O=c1cc(N2CCCCC2)c(-c2ccccc2)nn1Cc1cccc(Cl)c1`, 4.56 µM.

A word on the AC50: it is the midpoint of the concentration-response curve, whichever way the signal moves.
